In patent US20240124422A1, “MUTANT PI3K-ALPHA INHIBITORS AND THEIR USE AS PHARMACEUTICALS” (Prelude Therapeutics Incorporated, priority 2022, published 2024) one finds IC50 data, which are given here for 27 molecules.

pIC50: −log10 of the molar value.

One test deals with phosphorylation of AKT on Ser473 as a readout of the PI3K pathway in T-47D (heterozygous PIK3CA H1047R) cells. Description: PI3K pathway activation assay, pAKT Ser473 HTRF, T-47D cells. The note with it: Homo sapiens, T47D, 2 h, two hours of treatment. It is filed as cell-based. The procedure: The inhibitory activity of compounds was evaluated by measuring phosphorylation of AKT on Ser473 as a readout of the PI3K pathway using HTRF (CisBio catalog number: 64AKSPE). These studies were conducted in the T-47D (heterozygous PIK3CA H1047R) and SKBR3 (PIK3CA WT) cell lines. Cells were maintained in a 37° C. incubator at 5% CO2 in the following media: T-47D: RPMI 1640, ATCC© Modification (Gibco, A10491-01) supplemented with 10% v/v FBS (Gibco, 26140-079), 1% penicillin streptomycin (Gibco, 15140-122), and 7.4 ug/mL insulin (MilliporeSigma, I9278); SKBR3: McCoy's 5a (Modified) Medium (Gibco, 16600-082) supplemented with 10% v/v FBS (Gibco, 26140-079). Cells were seeded in 384-well plates at a density of 4,000 cells/well. Compounds dissolved in DMSO were added using a digital dispense (D300E, Tecan) 10-point serial dilution. After two hours of treatment, cells were lysed for thirty minutes and then incubated with detection reagents per HTRF kit material and manufacturer's instructions. Fluorescence signal was measured with a multimode plate reader (Envision 2105, Perkin Elmer). Fluorescent signal was normalized to background and DMSO controls to obtain percent inhibition/activity for each compound.
A word on the pIC50: it is the IC50 on a negative log10 scale, so that one unit is a factor of ten. `Cc1cc(C(C)Nc2ccccc2C(=O)O)c2nc(N3CCN(C(=O)C4CCCC4)CC3)n(C)c(=O)c2c1` (stereo not drawn) [Example 91, 2-((1-(2-(4-(Cyclopentanecarbonyl)piperazin-1-yl)-3,6-dimethyl-4-oxo-3,4-dihydroquinazolin-8-yl)ethyl)amino)benzoic acid] gave a pIC50 greater than 6.30. `Cc1cc(C(C)Nc2ccccc2C(=O)O)c2nc(N3CCN(C(=O)C45CC(F)(C4)C5)CC3)n(C)c(=O)c2c1` (stereo not drawn) [Example 92, 2-((1-(2-(4-(3-Fluorobicyclo[1.1.1]pentane-1-carbonyl)piperazin-1-yl)-3,6-dimethyl-4-oxo-3,4-dihydroquinazolin-8-yl)ethyl)amino)benzoic acid] gave a pIC50 of 5.00 to 6.30.

Consider `COCC(=O)N1CCN(c2nc3c(C(C)Nc4ccccc4C(=O)O)cc(C)cc3c(=O)n2C)CC1` (stereo not drawn) [Example 93, 2-((1-(2-(4-(2-Methoxyacetyl)piperazin-1-yl)-3,6-dimethyl-4-oxo-3,4-dihydro-quinazolin-8-yl)ethyl)amino)benzoic acid], for which the pIC50 is 5.00 to 6.30. On the same count and under the same terms, to `Cc1cc(C(C)Nc2ccccc2C(=O)O)c2nc(N3CCN(C(=O)c4ccc(C)nc4)CC3)n(C)c(=O)c2c1` (stereo not drawn) [Example 94, 2-((1-(3,6-Dimethyl-2-(4-(6-methylnicotinoyl)piperazin-1-yl)-4-oxo-3,4-dihydro-quinazolin-8-yl)ethyl)amino)benzoic acid] belongs greater than 6.30; to `Cc1cc(C(Nc2ccccc2C(=O)O)C(F)F)c2nc(N3CC4CC4C3)n(C)c(=O)c2c1` (stereo not drawn) [Example 96, 2-((1-(2-(3-azabicyclo[3.1.0]hexan-3-yl)-3,6-dimethyl-4-oxo-3,4-dihydro-quinazolin-8-yl)-2,2-difluoroethyl)amino)benzoic acid], 5.00 to 6.30; to `CCC(Nc1ccccc1C(=O)O)c1cc(C)cc2c(=O)n(C)c(N3CC4CC4C3)nc12` (stereo not drawn) [Example 97, 2-((1-(2-(3-azabicyclo[3.1.0]hexan-3-yl)-3,6-dimethyl-4-oxo-3,4-dihydro-quinazolin-8-yl)propyl)amino)benzoic acid], 5.00 to 6.30.

In turn, `Cc1cc(C(C)Nc2ccccc2C(=O)O)c2nc(N3CC4CC4C3)n(C(F)F)c(=O)c2c1` (stereo not drawn) [Example 102, 2-((1-(2-(3-Azabicyclo[3.1.0]hexan-3-yl)-3-(difluoromethyl)-6-methyl-4-oxo-3,4-dihydroquinazolin-8-yl)ethyl)amino)benzoic acid] showed a pIC50 of 5.00 to 6.30. The same measure, in the same setting: with `Cc1cc(C(C)Nc2ccccc2C(=O)O)c2nc(N3CC4CC4C3)n(CC(F)(F)F)c(=O)c2c1` (stereo not drawn) [Example 103, 2-((1-(2-(3-Azabicyclo[3.1.0]hexan-3-yl)-6-methyl-4-oxo-3-(2,2,2-trifluoroethyl)-3,4-dihydroquinazolin-8-yl)ethyl)amino)benzoic acid] the figure was 5.00 to 6.30.

The molecule `Cc1cc(C(C)Nc2ccccc2C(=O)O)c2nc(N3CC4(CCC4(F)F)C3)n(C)c(=O)c2c1` (stereo not drawn) [Example 106, 2-[1-[2-(7,7-difluoro-2-azaspiro[3.3]heptan-2-yl)-3,6-dimethyl-4-oxoquinazolin-8-yl]ethylamino]benzoic acid] gave a pIC50 greater than 6.30. Still for that read-out and setting: with `Cc1cc(C(C)Nc2ccccc2C(=O)O)c2nc(N3CCC4(CC3)CC(NC(=O)OC(C)(C)C)C4)n(C)c(=O)c2c1` (stereo not drawn) [Example 107, 2-[1-[3,6-dimethyl-2-[2-[(2-methylpropan-2-yl)oxycarbonylamino]-7-azaspiro[3.5]nonan-7-yl]-4-oxoquinazolin-8-yl]ethylamino]benzoic acid] the figure was 5.00 to 6.30. Same read-out and setting: with `Cc1cc(C(C)Nc2ccccc2C(=O)O)c2nc(N3CCC4(CC3)CN(C(=O)OC(C)(C)C)C4)n(C)c(=O)c2c1` (stereo not drawn) [Example 108, 2-[1-[3,6-dimethyl-2-[2-[(2-methylpropan-2-yl)oxycarbonyl]-2,7-diazaspiro[3.5]nonan-7-yl]-4-oxoquinazolin-8-yl]ethylamino]benzoic acid] the figure was 5.00 to 6.30. Same read-out and setting: with `Cc1cc(C(C)Nc2ccccc2C(=O)O)c2nc(N3CC4(C3)CC(F)(F)C4)n(C)c(=O)c2c1` (stereo not drawn) [Example 109, 2-[1-[2-(6,6-difluoro-2-azaspiro[3.3]heptan-2-yl)-3,6-dimethyl-4-oxoquinazolin-8-yl]ethylamino]benzoic acid] the figure was greater than 6.30; with `Cc1cc(C(C)Nc2ccccc2C(=O)O)c2nc(N3CCC(NC(=O)OC(C)(C)C)C3)n(C)c(=O)c2c1` (stereo not drawn) [Example 110, 2-[1-[3,6-dimethyl-2-[3-[(2-methylpropan-2-yl)oxycarbonylamino]pyrrolidin-1-yl]-4-oxoquinazolin-8-yl]ethylamino]benzoic acid], 5.00 to 6.30. Regarding `Cc1cc(C(C)Nc2ccccc2C(=O)O)c2nc(N3C4CCC3CC4)n(C)c(=O)c2c1` (stereo not drawn) [Example 111, 2-[1-[2-(7-azabicyclo[2.2.1]heptan-7-yl)-3,6-dimethyl-4-oxoquinazolin-8-yl]ethylamino]benzoic acid], the pIC50 was greater than 6.30. Molecule `Cc1cc(C(C)Nc2ccccc2C(=O)O)c2nc(N3CC4CCC4C3)n(C)c(=O)c2c1` (stereo not drawn) [Example 112, 2-[1-[2-(3-azabicyclo[3.2.0]heptan-3-yl)-3,6-dimethyl-4-oxoquinazolin-8-yl]ethylamino]benzoic acid] gave a pIC50 greater than 6.30.

On to `Cc1cc(C(C)Nc2ccccc2C(=O)O)c2nc(N3C[C@H]4CCC[C@H]4C3)n(C)c(=O)c2c1` (stereo partly drawn) [Example 113, 2-[1-[3,6-dimethyl-4-oxo-2-[(3aR,6aS)-3,3a,4,5,6,6a-hexahydro-1H-cyclopenta[c]pyrrol-2-yl]quinazolin-8-yl]ethylamino]benzoic acid], for which the negative-log IC50 (pIC50) is greater than 6.30. `Cc1cc(C(C)Nc2ccccc2C(=O)O)c2nc(N3CCCC34CC4)n(C)c(=O)c2c1` (stereo not drawn) [Example 114, 2-((1-(3,6-dimethyl-4-oxo-2-(4-azaspiro[2.4]heptan-4-yl)-3,4-dihydroquinazolin-8-yl)ethyl)amino)benzoic acid] gave a pIC50 of 5.00 to 6.30.

As for `Cc1cc(C(C)Nc2ccccc2C(=O)O)c2nc(N3CCCC3(C)C)n(C)c(=O)c2c1` (stereo not drawn) [Example 115, 2-((1-(2-(2,2-dimethylpyrrolidin-1-yl)-3,6-dimethyl-4-oxo-3,4-dihydroquinazolin-8-yl)ethyl)amino)benzoic acid], the pIC50 was greater than 6.30.

On to `Cc1cc(C(C)Nc2ccccc2C(=O)O)c2nc(N3CC4CC(C4)C3)n(C)c(=O)c2c1` (stereo not drawn) [Example 116, 2-((1-(2-(3-Azabicyclo[3.1.1]heptan-3-yl)-3,6-dimethyl-4-oxo-3,4-dihydroquinazolin-8-yl)ethyl)amino)benzoic acid], for which the negative-log IC50 (pIC50) was greater than 6.30.

With `Cc1cc(C(C)Nc2ccccc2C(=O)O)c2nc(N3CC4CC3C4)n(C)c(=O)c2c1` (stereo not drawn) [Example 117, 2-((1-(2-(2-Azabicyclo[2.1.1]hexan-2-yl)-3,6-dimethyl-4-oxo-3,4-dihydroquinazolin-8-yl)ethyl)amino)benzoic acid], the pIC50 is 5.00 to 6.30.

With `CSc1ncc(NC(C)c2cc(C)cc3c(=O)n(C)c(N4CC5CC5C4)nc23)c(C(=O)O)n1` (stereo not drawn) [Example 118, 5-((1-(2-(3-Azabicyclo[3.1.0]hexan-3-yl)-3,6-dimethyl-4-oxo-3,4-dihydroquinazolin-8-yl)ethyl)amino)-2-(methylthio)pyrimidine-4-carboxylic acid], the pIC50 was 5.00 to 6.30. For `Cc1cc(C(C)Nc2cccc(F)c2C(=O)O)c2nc(N3CC4CC4C3)n(C)c(=O)c2c1` (stereo not drawn) [Example 121, 2-[1-[2-(3-Azabicyclo[3.1.0]hexan-3-yl)-3,6-dimethyl-4-oxoquinazolin-8-yl]ethylamino]-6-fluorobenzoic acid], the pIC50 is greater than 6.30. `COc1ccc(NC(C)c2cc(C)cc3c(=O)n(C)c(N4CC5CC5C4)nc23)c(C(=O)O)c1` (stereo not drawn) [Example 122, 2-[1-[2-(3-Azabicyclo[3.1.0]hexan-3-yl)-3,6-dimethyl-4-oxoquinazolin-8-yl]ethylamino]-5-methoxybenzoic acid] showed a pIC50 of 5.00 to 6.30. The molecule `CSc1ccc(NC(C)c2cc(C)cc3c(=O)n(C)c(N4CC5CC5C4)nc23)c(C(=O)O)n1` (stereo not drawn) [Example 124, 3-[1-[2-(3-Azabicyclo[3.1.0]hexan-3-yl)-3,6-dimethyl-4-oxoquinazolin-8-yl]ethylamino]-6-methylsulfanylpyridine-2-carboxylic acid] gave a pIC50 greater than 6.30.

Still in this test, the particulars now being: two hours of treatment, read-out: T47D pAKT IC50.
With `COCCN(C)C(=O)[C@H]1[C@@H]2CN(c3nc4c(C(C)Nc5ccccc5C(=O)O)cc(C)cc4c(=O)n3C)C[C@@H]21` (stereo partly drawn) [Example 87, 2-((1-(2-((1R,5S,6R)-6-((2-Methoxyethyl)(methyl)carbamoyl)-3-azabicyclo[3.1.0]hexan-3-yl)-3,6-dimethyl-4-oxo-3,4-dihydroquinazolin-8-yl)ethyl)amino)benzoic acid], the pIC50 was 5.00 to 6.30.

Take `Cc1cc(C(C)Nc2ccccc2C(=O)O)c2nc(N3C[C@@H]4C(C(=O)N(C)c5cccnc5)[C@@H]4C3)n(C)c(=O)c2c1` (stereo partly drawn) [Example 88, 2-((1-(3,6-Dimethyl-2-((1R,5S,6R)-6-(methyl(pyridin-3-yl)carbamoyl)-3-azabicyclo[3.1.0]hexan-3-yl)-4-oxo-3,4-dihydroquinazolin-8-yl)ethyl)amino)benzoic acid]: the pIC50 was 5.00 to 6.30.

As to `CNC(=O)C1[C@H]2CN(c3nc4c(C(C)Nc5ccccc5C(=O)O)cc(C)cc4c(=O)n3C)C[C@@H]12` (stereo partly drawn) [Example 89, 2-((1-(3,6-Dimethyl-2-((1R,5S,6R)-6-(methylcarbamoyl)-3-azabicyclo[3.1.0]hexan-3-yl)-4-oxo-3,4-dihydroquinazolin-8-yl)ethyl)amino)benzoic acid], the pIC50 is 5.00 to 6.30.
